The source of these data is ChEMBL document CHEMBL5104146, “Anti-inflammatory and anticancer p-terphenyl derivatives from fungi of the genus Thelephora” (Bioorg Med Chem, 2022).

One experiment relates to KB 3-1. The experiment is described as follows: Cytotoxicity against human KB 3-1 cells assessed as cell growth inhibition. It counts as functional, cell-based.
Experiment [1] is described as follows: Inhibition of Streptococcus pneumoniae FabK using t-o-NAC as substrate in presence of NADPH by […]. (In an ELISA, binding on a coated surface is turned into a signal by an enzyme label.)
Another experiment concerns L929. Description: Cytotoxicity against mouse L929 cells assessed as cell growth inhibition. It counts as functional, cell-based.
Experiment [2] in a line: Inhibition of Staphylococcus aureus FabK using t-o-NAC as substrate in presence of NADPH by […].
Experiment [3] can be described thus: Inhibition of Escherichia coli FabK using t-o-NAC as substrate in presence of NADPH by […].
The nature of experiment [4]: Inhibition of 17beta-HSD1 (unknown origin). On the set-up: species or system Homo sapiens.
A short description of experiment [5]: Inhibition of Saccharomyces cerevisiae alpha-glucosidase using pNPG as substrate preincubated for 10 mins followed by substrate addition measured after 15 mins by absorbance based microplate reader analysis.
Experiment [6] can be described thus: Inhibition of TNF-alpha production in rat RBL-2H3 cells. It counts as functional, cell-based.
The next experiment relates to HepG2. The experiment is described as follows: Antiproliferative activity against human HepG2 cells assessed as cell growth inhibition measured after 48 hrs. It counts as functional, cell-based. The note with it: HepG2, 48 h.
A short description of experiment [7]: Antioxidant activity assessed as DPPH radical scavenging activity by absorbance based analysis. It counts as functional. (In general: The DPPH test is a chemical assay of radical scavenging.)
Experiment [8] can be described thus: Antioxidant activity assessed as DPPH radical scavenging activity measured after 30 mins under dark condition by microplate reader analysis. The format is functional.

Structures are written as SMILES.

By IC50 is commonly meant the concentration that gives 50% inhibition. As usually defined, the EC50 is the midpoint of the concentration-response curve.

Turning to `O=C1C(O)=C(c2ccc(O)c(O)c2)C(=O)C(O)=C1c1ccc(O)cc1`, the half-inhibitory concentration (IC50) with KB 3-1 was 7 µM; in experiment [1] it was 1.57 µM; in the experiment on L929, 17 µM.

`O=C1C(O)=C(c2ccc(O)cc2)C(=O)C(O)=C1c1ccc(O)cc1`: the IC50 is more than 200 µM in experiment [2], 0.24 µM in [1] and more than 200 µM in experiment [3]. The EC50 in experiment [4] is more than 100 µM.

Compound `O=C(Oc1c(O)c(-c2ccc(O)cc2)c(OC(=O)c2ccccc2)c(O)c1-c1ccc(O)cc1)c1ccccc1` returned a 50% inhibitory concentration (IC50) in experiment [5] of more than 50 µM.

`O=C(Oc1c(O)c(-c2ccc(O)cc2)c(OC(=O)c2ccc(O)cc2)c(O)c1-c1ccc(O)cc1)c1ccc(O)cc1`: the half-maximal inhibitory concentration (IC50) in [6] is 3.5 nM.

In turn, `CC(=O)Oc1c(OC(=O)c2ccccc2)c(-c2ccc(O)cc2)c(O)c(O)c1-c1ccc(O)cc1` gave an IC50 in experiment [5] of 0.99 µM.

In experiment [5], `O=C(Oc1c(OC(=O)c2ccccc2)c(-c2ccc(O)cc2)c(OC(=O)c2ccccc2)c(O)c1-c1ccc(O)cc1)c1ccccc1` came in with an IC50 of 4.53 µM.

Consider `CC(=O)Oc1c(OC(=O)c2ccccc2)c(-c2ccc(O)cc2)c(OC(=O)c2ccccc2)c(OC(=O)c2ccccc2)c1-c1ccc(O)cc1`, for which the IC50 in experiment [5] is 2.98 µM.

Consider `O=C(Cc1ccccc1)Oc1c(OC(=O)c2ccccc2)c(-c2ccc(O)cc2)c(O)c(O)c1-c1ccc(O)cc1`, for which the IC50 in the experiment on HepG2 turned out to be 7 µM.

For `O=C(Cc1ccccc1)Oc1c(O)c(-c2ccc(O)cc2)c(OC(=O)c2ccc(O)cc2)c(O)c1-c1ccc(O)cc1`, the EC50 in experiment [7] came to 0.028 µM.

As to `COC1=C(c2ccc(O)cc2)C(=O)C(OC(=O)c2ccccc2)=C(c2ccc(O)cc2)C1=O`, the EC50 in experiment [8] is 150 µM. Moreover, it took 18.8 µM to reach half-maximal inhibition in [5] (IC50).

Turning to `O=C1O[C@H]([C@@H](O)CO)C(O)=C1O` [ASCORBIC ACID], the EC50 in experiment [7] was determined as 0.27 µM.

Turning to `O=C(Cc1ccccc1)Oc1c(OC(=O)Cc2ccccc2)c(-c2ccc(O)cc2)c(O)c(O)c1-c1ccc(O)cc1` [VIALININ A], the IC50 in experiment [6] turned out to be 0.02 nM; in the experiment on HepG2, 7 µM.
